Like-named read-outs stand apart in the source and are kept apart here.
Key:
[1] = biological target: T1, human androgen receptor (Homo sapiens, UniProt P10275); assay: Androgen receptor (AR) binding assay, displacement of [3H]R1881 (hydroxylapatite method)
T1 construct: expressed in transfected cells; host or cells: HEK-293 cells stably transfected with the pCMV neo-hAR plasmid; the 105 000 x g cytosol was used
T1 sequence (P10275 1-920): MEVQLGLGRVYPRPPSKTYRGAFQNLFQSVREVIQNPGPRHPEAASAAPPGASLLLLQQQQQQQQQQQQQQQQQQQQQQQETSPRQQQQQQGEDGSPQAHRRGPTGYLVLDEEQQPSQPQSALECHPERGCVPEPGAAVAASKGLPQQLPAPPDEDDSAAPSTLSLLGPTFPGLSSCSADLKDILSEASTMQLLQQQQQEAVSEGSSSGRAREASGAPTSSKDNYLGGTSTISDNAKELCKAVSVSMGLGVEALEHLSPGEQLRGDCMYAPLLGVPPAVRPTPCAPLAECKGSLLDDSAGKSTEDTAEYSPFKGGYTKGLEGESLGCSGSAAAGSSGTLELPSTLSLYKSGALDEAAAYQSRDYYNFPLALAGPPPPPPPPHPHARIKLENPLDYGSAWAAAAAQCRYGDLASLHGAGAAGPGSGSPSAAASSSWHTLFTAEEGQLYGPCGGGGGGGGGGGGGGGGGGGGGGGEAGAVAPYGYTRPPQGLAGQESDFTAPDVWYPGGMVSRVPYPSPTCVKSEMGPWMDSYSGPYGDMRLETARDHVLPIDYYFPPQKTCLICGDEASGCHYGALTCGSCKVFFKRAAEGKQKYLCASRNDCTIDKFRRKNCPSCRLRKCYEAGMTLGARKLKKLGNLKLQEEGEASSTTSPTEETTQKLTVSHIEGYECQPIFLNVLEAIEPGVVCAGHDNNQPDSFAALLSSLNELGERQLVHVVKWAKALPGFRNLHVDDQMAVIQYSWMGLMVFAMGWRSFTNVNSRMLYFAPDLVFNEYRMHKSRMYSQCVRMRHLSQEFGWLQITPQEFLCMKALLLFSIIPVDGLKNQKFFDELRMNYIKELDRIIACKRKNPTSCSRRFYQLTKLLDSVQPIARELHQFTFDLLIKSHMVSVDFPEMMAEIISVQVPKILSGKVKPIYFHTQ
Protocol: The incubation was performed with 3 nM [^3H]R1881 for 16 h at 0-4° C. in the presence or absence of the indicated concentrations of unlabeled compounds.
Androgen Receptor (AR) Assay
Preparation of Human Embryonic Kidney (HEK-293) cells stably Transfected with Human AR (hAR): The pCMV neo-hAR plasmid [Huang, X.-F. and V. Luu-The, Modulation of the androgenic response by recombinant human 11-cis retinol dehydrogenase. J. Steroid Biochem., 2001. 77(2-3): p. 129-133] was transfected into HEK-293 cells using lipofectin transfection kit (Life Technologies, Ontario, Canada), and cells resistant to G418 were isolated as previously described [Dufort, I., et al., Characteristics of a highly labile human type 5 17beta-hydroxysteroid dehydrogenase. Endocrinology, 1999. 140(2): p. 568-574]. On the morning of the binding assay, a pellet of HEK-293 hAR cells was thawed, suspended in buffer, sonicated and centrifuged at 105 000×g for 90 min. The androgen binding assay was performed with the hydroxylapatite (HAP) method [Martel, C., et al., Binding characteristics of novel nonsteroidal antiestrogens to the rat uterine estrogen receptors. J. Steroid Biochem. Mol. Biol., 1998. 64: p. 199-205] using HEK-293 hAR cell cytosol preparation (0.1 ml) and 3 nM [^3H]R1881.

[2] = system: mouse prostate; assay: Preliminary experiment: stimulation of mouse prostate weight, potency relative to DHT; format: in vivo; conditions: data not shown
From the text: We next used the best recognized in vivo assay to assess the in vivo activity of THG [Labrie, C., A. Bélanger, and F. Labrie, Androgenic activity of dehydroepiandrosterone and androstenedione in the rat ventral prostate. Endocrinology, 1988. 123: p. 1412-1417]. […] Similar observations were made for the preputial gland. The levator ani is an androgen-sensitive muscle [Boissonneault, G., et al., Depressed translational activity in the androgen sensitive levator ani muscle of the rat. J Steroid Biochem, 1989. 32(4): p. 507-13] which has long been recognized as a myotropic marker of the androgenic/anabolic activity of steroids [Eisenberg, S., R. Buie, Jr., and L. Tobian, Jr., Adrenal cortical function in essential hypertension; a study of sweat sodium concentration. Am J Med Sci, 1950. 220(3): p. 287-9].

[3] = system: gonadectomized (GDX) male C57BL6 mice; assay: 7-day daily s.c. treatment, androgen-sensitive tissue weights in gonadectomized mice; format: in vivo, mouse; conditions: daily s.c. 7 days, DHT 0.1 mg or THG 0.5 mg; for levator ani muscle weight: versus intact animals; for prostate weight: versus intact controls
From the text: We next used the best recognized in vivo assay to assess the in vivo activity of THG [Labrie, C., A. Bélanger, and F. Labrie, Androgenic activity of dehydroepiandrosterone and androstenedione in the rat ventral prostate. Endocrinology, 1988. 123: p. 1412-1417]. […] The levator ani is an androgen-sensitive muscle [Boissonneault, G., et al., Depressed translational activity in the androgen sensitive levator ani muscle of the rat. J Steroid Biochem, 1989. 32(4): p. 507-13] which has long been recognized as a myotropic marker of the androgenic/anabolic activity of steroids [Eisenberg, S., R. Buie, Jr., and L. Tobian, Jr., Adrenal cortical function in essential hypertension; a study of sweat sodium concentration. Am J Med Sci, 1950. 220(3): p. 287-9].
Eleven- to twelve-week-old male C57BL6 mice obtained from Harlan (Indianapolis, Ind.) were allowed to acclimate for 2 weeks. The animals were housed individually in an environmentally-controlled room (temperature: 22±3° C.; humidity: 50±20%; 12-h light-12-h dark cycles, lights on at 07:15 h). The mice had free access to tap water and a certified rodent feed (Lab Diet 5002 (pellet), Ralston Purina, St-Louis, Mo.). The experiment was conducted in an animal facility approved by the Canadian Council on Animal Care (CCAC) and the Association for Assessment and Accreditation of Laboratory Animal Care (AAALAC). The study was performed in accordance with the CCAC Guide for Care and Use of Experimental Animals.
(§1) Animals weighing between 24.0 and 32.4 g (mean=28.2 g) were randomized according to body weight and were assigned to nineteen groups of 10 animals each. On day 1 of the study, animals were castrated (GDX) under isoflurane anesthesia. All animals were sacrificed 7 days after GDX. […] A GDX-vehicle injected group were used as a control. Eight intact mice of the same strain, age and body weight were sacrificed as described above and tissues were collected, weighed and discarded. The mice sacrificed 2, 4 and 7 days after starting treatment received daily injection of the steroids and were sacrificed 24 h after last injection under isoflurane anesthesia and exsanguinated via cardiac puncture. The prostate (ventral+dorsal), seminal vesicles, preputial glands as well as gastrocnemius and levator ani muscle were collected, freed from adhering tissue or fluid and weighed.

[4] = system: androgen-sensitive genes in levator ani muscle, gastrocnemius muscle and prostate; assay: Microarray gene expression profile in tissues of GDX mice, genes modulated in common with DHT; format: in vivo, mouse; conditions: s.c. 0.5 mg THG vs 0.1 mg DHT, 0.5 h to 7 days
From the text: The genes selected were those identified in common according to the Affymetrix, MAS 5.0 and RMA program [Gautier, L., et al., affy—analysis of Affymetrix GeneChip data at the probe level. Bioinformatics, 2004. 20(3): p. 307-15]. Color scale representing days of fold change due to treatments is shown below the figure.
The selected genes were clustered by Euclidean distance. Columns represents each one of the 790 selected gene and each row a particular treatement group. A pseudo-colored representation of relative intensity is shown such that red indicates high, blue low and yellow unchanged expression, with scale shown at the right.
In the prostate, on the other hand, the classical androgen-sensitive tissue [Labrie, C., A. Bélanger, and F. Labrie, Androgenic activity of dehydroepiandrosterone and androstenedione in the rat ventral prostate. Endocrinology, 1988. 123: p.
as §1, with “The prostate (ventral+dorsal), seminal vesicles, preputial glands as well as gastrocnemius and levator ani muscle were collected, freed from adhering tissue or fluid and weighed.” left out
RNA extraction and microarrays tissues were snap-frozen in liquid nitrogen and kept at −80° C. prior to RNA extraction. […] Scanned images were analyzed with Affymetrix GCOS v1.1 software and with GeneSpring 6.1 software (Silicon Genetics, Redwood City, Calif.) as described [Vasseur, S., et al., Gene expression profiling by DNA microarray analysis in mouse embryonicfibroblasts transformed by rasV12 mutated protein and the E1A oncogene. […]

Compound	relative potency to displace [3H]R1881 from the human AR [1]	relative potency to displace [3H]R1881 from the human AR ([1]; 3 nM [3H]R1881, 16 h at 0-4° C., HEK-293 hAR cell cytosol, THG = 1.0)	potency relative to DHT as stimulator of the weight of the mouse prostate [2] [%]	preputial gland weight [3]	seminal vesicle weight [3]	levator ani muscle weight [3]	prostate weight [3]	number of genes commonly modulated by DHT and THG in gastrocnemius muscle [4] [genes]	number of genes commonly modulated by DHT and THG in levator ani muscle [4] [genes]	number of genes commonly modulated by DHT and THG in prostate [4] [genes]
C[C@]1(O)CC[C@H]2[C@@H]3CCC4=CC(=O)CCC4=C3C=C[C@@]21C [R1881, methyltrienolone, reference compound]	0.72									
CC[C@]1(O)CC[C@H]2[C@@H]3CCC4=CC(=O)CCC4=C3C=C[C@@]21CC [THG, tetrahydrogestrinone]		1.0	20	completely reversed the GDX-induced atrophy	completely reversed the GDX-induced atrophy	increased weight of levator ani to values not different from intact animals	reversed the effect of GDX, to a value not statistically different from intact controls	112	790	1121
C[C@]12CCC(=O)C[C@@H]1CC[C@@H]1[C@@H]2CC[C@]2(C)[C@@H](O)CC[C@@H]12 [DHT, dihydrotestosterone, reference compound]				completely reversed the GDX-induced atrophy	completely reversed the GDX-induced atrophy	increased weight of levator ani to values not different from intact animals	completely reversed the GDX-induced atrophy of the prostate			
